The values below are quoted from earlier work in US4599352A, “Antineoplastic platinum (IV) complexes and compositions” (priority 1984, dated 1986).

The structures appear in SMILES notation.

One data set relates to leukemia L1210. The note with it: cited from earlier work.
Data set [1] relates to sarcoma-180, ascites form. To be noted: cited from earlier work.

Turning to `[Cl][Pt]1([Cl])[NH]C2CCCCC2[NH]1` (single isomer, unassigned) [dichloro (1,2-diaminocyclohexane) platinum (II) complex trans (d) isomer], in the data set with leukemia L1210, the “Antitumor activity ranking” value is listed as “intermediate activity”. With `[Cl][Pt]1([Cl])[NH]C2CCCCC2[NH]1` (single isomer, unassigned) [dichloro (1,2-diaminocyclohexane) platinum (II) complex trans (1) isomer], the “Antitumor activity ranking” value in the data set with leukemia L1210 was “highest activity”. On to `NC1CCCCC1N.[Cl-].[Cl-].[Pt+2]` (stereo not drawn) [Cis-dichloro-cis-1,2-cyclohexanediamine platinum (II)], for which, in data set [1], the “Antitumor efficacy ranking” value is reported as “more efficacious than the corresponding trans isomers”. The “Antitumor activity ranking” value with leukemia L1210 was “least active”.
